Experimental data published in patent publication US6716961B2, “Chiral peptide nucleic acids with a N-aminoethyl-d-proline backbone” (ISIS Innovation Limited, priority 2001, dated 2004).

Assays:
poly(dA) [1] = assay: Tm (UV melting) measurement of hybrid with poly(dA); type: binding; settings: conditions as FIG. 1 (10 mM sodium phosphate pH 7.0; 150 mM NaCl; T:A=1:1); dash with footnote b = no melting above 20° C. was observed
Experimental: (§1) FIG. 1 is a melting point curve for compound (3a) and poly (rA), (sigmoid curve with inflection at 53° C.) poly (rU) (rising straight line plot) and poly (dA) (falling straight line plot) Conditions: 10 mM sodium phosphate buffer pH 7.0; 150 mM NaCl; 1.0 μM (3a); ratio of T:A=1:1, 20% hypochromicity.
(§2) Poly(rA) (Mr˜7×10^6) and poly(rU) (Mr<9×10^5) was obtained from Fluka AG. Poly(dA) (Mr˜9.19×10^5) was obtained from Amersham Pharmacia Biotech. Poly(rI) was obtained from Sigma. The oligonucleotide, (dA)10 and fluorescent labelled (dA)10 was obtained in deprotected and hplc-purified form. All nucleic acids and oligonucleotides were used as received without further treatment.
(§3) The concentration of oligonucleotide, nucleic acid and cPNA solutions was determined from the absorbance at 260 nm (OD260). […]
(§4) Tm experiments were performed on a CARY 100 UV Spectrophotometer (Varian Ltd.) equipped with a thermal melt system. The sample for Tm measurement was prepared by mixing calculated amounts of stock oligonucleotide and cPNA solutions together to give final concentration of nucleotides and sodium phosphate buffer (pH 7.0) and the final volumes were adjusted to 3.0 mL by addition of deionized water. […] The OD260 was recorded in steps from 20-95° C. […] The results were normalized by dividing the absorbance at each temperature by the initial absorbance. […]

poly(rA) [2] = assay: Circular dichroism spectroscopy of mixture with poly(rA); type: binding; settings: 10 mM sodium phosphate buffer pH 7.0; 200-300 nm
Experimental: (§5) FIG. 2A is a CD spectra of mixture of poly(rA) and (3a) at different equivalents of T; inset: plot of ε260 versus equivalents of T; FIG. 2B is a CD spectra of mixture of poly(dA) and (3a) at different equivalents of T. Conditions 10 mM sodium phosphate buffer pH 7.0. The concentration of poly (rA) and poly (dA) was 10 μM based on AMP.
(§6) All CD experiments were performed on a JASCO Model J-710/720 spectropolarimeter (Oxford Centre of Molecular Sciences, Oxford). The samples were prepared by mixing calculated amounts of stock oligonucleotide and cPNA solutions together in a 10 mm quartz cell and the final volumes were adjusted to 2.00 mL by addition of deionized water containing an appropriate amount of sodium phosphate buffer pH 7.0 to give the final AMP concentration of 5 mM and phosphate buffer of 10 mM. The spectra were measured at 20° C. from 300 to 200 nm and averaged 4 times then subtracted from a spectrum of pure water under the same conditions.

poly(rU) = assay: Tm (UV melting) control experiment with poly(rU); type: binding; settings: conditions as FIG. 1; dash with footnote b = no melting above 20° C. was observed
Experimental: as §1, §2, §3, §4

poly(rA) [3] = assay: Tm (UV melting) measurement of hybrid with poly(rA); type: binding
Experimental: as §1, §2, §3, §4

poly(dA) [4] = assay: Circular dichroism spectroscopy of mixture with poly(dA); type: binding; settings: 10 mM sodium phosphate buffer pH 7.0; same conditions as poly(rA)
Experimental: as §5, §6

[5] = Solubility in aqueous solvents; type: physicochemical
poly(rI) = assay: Tm (UV melting) control experiment with poly(rI); type: binding; settings: conditions as FIG. 1; dash with footnote b = no melting above 20° C. was observed
Experimental: as §1, §2, §3, §4

[6] = test system: fluorescent labelled (dA)10; assay: Gel electrophoresis with fluorescent labelled (dA)10; type: binding; settings: F(dA)10:cPNA 1:1 to 1:10; 20% polyacrylamide gel, 90 mM TBE
Text: The gel electrophoresis apparatus used was a SE6000 Vertical Slab Gel Electrophoresis Unit (Hoefer Scientific Instruments). The gel dimensions were 10×9.5×0.075 cm. The DC power sources was an Electrophoresis power supply model EPS-301 (Amersham Pharmacia Biotech). Acrylamide and N,N-methylene bisacrylamide were obtained as a concentrated aqueous stock solution from Fluka AG. Ammonium persulfate (electrophoresis grade) was obtained from Sigma Chemical Co. Tetramethylethylenediamine (TEMED) (electrophoresis grade) and hemicals necessary for preparing buffers were of the highest purity available from BDH. The stock 0.90 M Tris-Borate-EDTA (TBE) buffer pH 8.3 and the loading buffer (30% glycerol, 0.025% bromophenol blue and 0.025% xylene cyanol FF in 90 mM TBE as well as the 20% polyacrylamide gel in 90 mM TBE was prepared according to the literature (see Essential Molecular Biology, A Practical Approach, Vol 1, Oxford, 1991, pp 89-126).
The sample was prepared by mixing calculated amounts of the fluorescent labelled (dA)10 and PNA concentrated stock solutions in an Eppendorf tube to give the final total amounts of AMP ˜1 nmol and the molar ratio of F(dA)10:cPNA=1:1, 1:2, 1:3, 1:5 and 1:10. […]

H-[Acg(T)]10-LysNH3 [(1a)]
Tm of hybrid with poly(dA) (poly(dA) [1]): 73 °C

H-[Gly-o-Pro(cis-τ)]10-LysNH, [(2a)]
Tm of hybrid with poly(dA) (poly(dA) [1]): 70 °C

H-[(ψ-CH2)Gly-D-Pro(T)]10-LysNH2 [(3a)]
change in CD signal on addition to poly(rA) (poly(rA) [2]): strong induced CD signal with a minima at 275 nm | Tm of hybrid with poly(rU) (poly(rU)): no observable melting curve | Tm of hybrid with poly(rA) (poly(rA) [3]; 10 mM sodium phosphate buffer pH 7.0, 150 mM NaCl, 1.0 μM (3a), T:A=1:1): 53 °C | binding to poly(rA) at high salt concentration (poly(rA) [3]; 1.0 M NaCl): no binding | change in CD signal on addition to poly(dA) (poly(dA) [4]): no significant change | achievable concentration in aqueous solvents [5]: exceeding 5 mg/mL | solubility in aqueous solvents [5]: freely soluble in aqueous solvents | Tm of hybrid with poly(rI) (poly(rI)): no observable melting curve | binding to (dA)10 in gel electrophoresis [6]: lack of binding
